# pIC50: −log10 of the molar value.
# Legend:
# Pseudomonas aeruginosa [1] = assay: Antibacterial activity against Pseudomonas aeruginosa 19-5 assessed as inhibition of bacterial growth measured after 18 to 20 hrs by broth microdilution method; type: functional; conditions: time 18-20 hrs
# HepG2 [2] = assay: Cytotoxicity against human HepG2 cells assessed as inhibition of cell growth at 100 uM incubated for 24 hrs by CCK8 method relative to control; type: functional
# Escherichia coli [3] = assay: Antibacterial activity against Escherichia coli 14-4 assessed as inhibition of bacterial growth measured after 18 to 20 hrs by broth microdilution method; type: functional; conditions: time 18-20 hrs
# Klebsiella pneumoniae [4] = assay: Antibacterial activity against Klebsiella pneumoniae 15-4 assessed as inhibition of bacterial growth measured after 18 to 20 hrs by broth microdilution method; type: functional; conditions: time 18-20 hrs
# [5] = Cytotoxicity against HEK293T cells assessed as inhibition of cell growth incubated for 24 hrs by CCK8 method; type: toxicity, cell-based, HEK-293T; conditions: human
# Acinetobacter baumannii [6] = assay: Antibacterial activity against Acinetobacter baumannii 17-2 assessed as inhibition of bacterial growth measured after 18 to 20 hrs by broth microdilution method; type: functional; conditions: time 18-20 hrs
# Klebsiella pneumoniae [7] = assay: Antibacterial activity against Klebsiella pneumoniae 15-5 assessed as inhibition of bacterial growth measured after 18 to 20 hrs by broth microdilution method; type: functional; conditions: time 18-20 hrs
# Jurkat [8] = assay: Cytotoxicity against human Jurkat cells assessed as inhibition of cell growth at 100 uM incubated for 24 hrs by CCK8 method relative to control; type: functional
# Klebsiella pneumoniae [9] = assay: Antibacterial activity against Klebsiella pneumoniae 15-1 assessed as inhibition of bacterial growth measured after 18 to 20 hrs by broth microdilution method; type: functional; conditions: time 18-20 hrs
# Jurkat [10] = assay: Cytotoxicity against human Jurkat cells assessed as inhibition of cell growth incubated for 24 hrs by CCK8 method; type: functional, cell-based
# HepG2 [11] = assay: Cytotoxicity against human HepG2 cells assessed as inhibition of cell growth incubated for 24 hrs by CCK8 method; type: functional, cell-based; conditions: HepG2, 24 h
# Escherichia coli [12] = assay: Antibacterial activity against Escherichia coli 14-2 assessed as inhibition of bacterial growth measured after 18 to 20 hrs by broth microdilution method; type: functional; conditions: time 18-20 hrs
# Acinetobacter baumannii [13] = assay: Antibacterial activity against Acinetobacter baumannii 17-8 assessed as inhibition of bacterial growth measured after 18 to 20 hrs by broth microdilution method; type: functional; conditions: time 18-20 hrs
# Escherichia coli [14] = assay: Antibacterial activity against Escherichia coli ATCC 35218 assessed as inhibition of bacterial growth measured after 18 to 20 hrs by broth microdilution method; type: functional; conditions: time 18-20 hrs
# [15] = Cytotoxicity against HEK293T cells assessed as inhibition of cell growth at 100 uM incubated for 24 hrs by CCK8 method relative to control; type: toxicity, cell-based, HEK-293T; conditions: human
# Pseudomonas aeruginosa [16] = assay: Antibacterial activity against Pseudomonas aeruginosa 17-1 assessed as inhibition of bacterial growth measured after 18 to 20 hrs by broth microdilution method; type: functional; conditions: time 18-20 hrs
# [17] = Half life in Sprague-Dawley rat at 10 mg/kg, iv measured upto 24 hrs LC-MS/MS analysis; type: ADME, organism-based; conditions: in vivo
# [18] = Volume of distribution at steady state in Sprague-Dawley rat at 10 mg/kg, iv measured upto 24 hrs LC-MS/MS analysis; type: ADME, organism-based; conditions: in vivo, read-out: Vdss
# [19] = AUC (0 to t) in Sprague-Dawley rat at 10 mg/kg, iv measured upto 24 hrs LC-MS/MS analysis; type: ADME, organism-based; conditions: Sprague-Dawley, in vivo
# [20] = Clearance in Sprague-Dawley rat at 10 mg/kg, iv measured upto 24 hrs LC-MS/MS analysis; type: ADME, organism-based; conditions: in vivo
# [21] = MRT in Sprague-Dawley rat at 10 mg/kg, iv measured upto 24 hrs LC-MS/MS analysis; type: ADME, organism-based; conditions: in vivo
# Pseudomonas aeruginosa [22] = assay: Antibacterial activity against Pseudomonas aeruginosa T-2022 assessed as inhibition of bacterial growth measured after 18 to 20 hrs by broth microdilution method; type: functional; conditions: time 18-20 hrs
MIC (Pseudomonas aeruginosa [1]) [µg/mL],MIC (Escherichia coli [3]) [µg/mL],MIC (Klebsiella pneumoniae [4]) [µg/mL],MIC (Acinetobacter baumannii [6]) [µg/mL],MIC (Klebsiella pneumoniae [7]) [µg/mL],MIC (Klebsiella pneumoniae [9]) [µg/mL],MIC (Escherichia coli [12]) [µg/mL],MIC (Acinetobacter baumannii [13]) [µg/mL],MIC (Escherichia coli [14]) [µg/mL],MIC (Pseudomonas aeruginosa [16]) [µg/mL],SMILES,inhibition at 100 µM (HepG2 [2]) [%],IC50 at 24 h [5] [µM],inhibition at 100 µM (Jurkat [8]) [%],pIC50 (Jurkat [10]),pIC50 (HepG2 [11]),"inhibition at 24 h, 100 µM [15] [%]",further results
8,≤ 0.03,0.06,0.25,≤ 0.03,≤ 0.03,≤ 0.03,0.125,≤ 0.03,4,CCCSSCc1ccc(-c2ncc(C(=O)N[C@@H](CCN)C(=O)N(C)[C@@H]3C(=O)N[C@@H](C)C(=O)N[C@H](C(=O)NCC#N)Cc4ccc(OCCN)c(c4)-c4cc3ccc4OCCN)c(C)n2)cc1.O=C(O)C(F)(F)F.O=C(O)C(F)(F)F.O=C(O)C(F)(F)F.O=C(O)C(F)(F)F,-3.61,> 100,32.5,< 4.00,< 4.00,29.9,–
–,–,–,–,–,–,–,–,–,–,Cc1nc(-c2ccc(SSC(C)(C)C)cc2)ncc1C(=O)N[C@@H](CCN)C(=O)N(C)[C@@H]1C(=O)N[C@@H](C)C(=O)N[C@H](C(=O)NCC#N)Cc2ccc(OCCN)c(c2)-c2cc1ccc2OCCN,–,–,–,–,–,–,half-life [17]: 2.8 h; Vd [18]: 0.252 L/kg; AUC(0-t) at 24 h [19]: 170000 ng·h/mL; clearance [20]: 0.954 mL/min/kg; MRT [21]: 4.4 h
4,≤ 0.03,0.06,1,0.06,0.125,0.125,0.25,≤ 0.03,4,Cc1nc(-c2ccc(CSSC3CCCC3)cc2)ncc1C(=O)N[C@@H](CCN)C(=O)N(C)[C@@H]1C(=O)N[C@@H](C)C(=O)N[C@H](C(=O)NCC#N)Cc2ccc(OCCN)c(c2)-c2cc1ccc2OCCN.O=C(O)C(F)(F)F.O=C(O)C(F)(F)F.O=C(O)C(F)(F)F.O=C(O)C(F)(F)F,3.22,> 100,35.4,< 4.00,< 4.00,42.6,–
–,–,–,–,–,–,–,–,–,–,C[C@H]1COc2c(N3CCN(C)CC3)c(F)cc3c(=O)c(C(=O)O)cn1c23 [LEVOFLOXACIN ANHYDROUS],–,–,–,–,–,–,MIC (Pseudomonas aeruginosa [22]): > 64 µg/mL
4,≤ 0.03,0.125,1,0.06,≤ 0.03,≤ 0.03,0.5,≤ 0.03,4,CCCSSc1ccc(-c2ncc(C(=O)N[C@@H](CCN)C(=O)N(C)[C@@H]3C(=O)N[C@@H](C)C(=O)N[C@H](C(=O)NCC#N)Cc4ccc(OCCN)c(c4)-c4cc3ccc4OCCN)c(C)n2)cc1.O=C(O)C(F)(F)F.O=C(O)C(F)(F)F.O=C(O)C(F)(F)F.O=C(O)C(F)(F)F,-6.72,> 100,42.4,< 4.00,< 4.00,30.6,–
8,≤ 0.03,≤ 0.03,1,≤ 0.03,≤ 0.03,≤ 0.03,0.25,≤ 0.03,8,CSSC(C)(C)c1ccc(-c2ncc(C(=O)N[C@@H](CCN)C(=O)N(C)[C@@H]3C(=O)N[C@@H](C)C(=O)N[C@H](C(=O)NCC#N)Cc4ccc(OCCN)c(c4)-c4cc3ccc4OCCN)c(C)n2)cc1.O=C(O)C(F)(F)F.O=C(O)C(F)(F)F.O=C(O)C(F)(F)F.O=C(O)C(F)(F)F,-12.6,> 100,39.1,< 4.00,< 4.00,48.1,–
–,–,–,–,–,–,–,–,–,–,CCCSSCc1ccc(-c2ncc(C(=O)N[C@@H](CCN)C(=O)N(C)[C@@H]3C(=O)N[C@@H](C)C(=O)N[C@H](C(=O)NCC#N)Cc4ccc(OCCN)c(c4)-c4cc3ccc4OCCN)c(C)n2)cc1,–,–,–,–,–,–,half-life [17]: 0.37 h; Vd [18]: 0.285 L/kg; AUC(0-t) at 24 h [19]: 15300 ng·h/mL; clearance [20]: 10.8 mL/min/kg; MRT [21]: 0.44 h

# Reference: ChEMBL document CHEMBL5518248, “Design, Synthesis, and Biological Evaluation of Novel Arylomycins against Multidrug-Resistant Gram-Negative Bacteria” (J Med Chem, 2024)
